This note sets out measurements from ChEMBL document CHEMBL1154035, “Synthesis, characterization, and anti-melanoma activity of tetra-O-substituted analogs of nordihydroguaiaretic acid” (Bioorg Med Chem Lett, 2009).

This data set has as its system Mus musculus. Kind of data set: Toxicity in ip dosed mouse. In kind it is organism-based. The settings on record: in vivo.

The structures appear in SMILES notation.

In general, LD50 refers to the dose expected to kill half of the subjects tested.

Regarding `CC(Cc1ccc(O)c(O)c1)C(C)Cc1ccc(O)c(O)c1` (configuration not stated) [NORDIHYDROGUAIARETIC ACID], the LD50 is 75 mg/kg.
For `COc1ccc(C[C@@H](C)[C@@H](C)Cc2ccc(OC)c(OC)c2)cc1OC` [TERAMEPROCOL] the value was 1000 mg/kg.
